The target in the assay is T1, human TRPC6 (Homo sapiens, UniProt Q9Y210).
T1 construct: expressed in transfected cells
T1 sequence (Q9Y210 1-931): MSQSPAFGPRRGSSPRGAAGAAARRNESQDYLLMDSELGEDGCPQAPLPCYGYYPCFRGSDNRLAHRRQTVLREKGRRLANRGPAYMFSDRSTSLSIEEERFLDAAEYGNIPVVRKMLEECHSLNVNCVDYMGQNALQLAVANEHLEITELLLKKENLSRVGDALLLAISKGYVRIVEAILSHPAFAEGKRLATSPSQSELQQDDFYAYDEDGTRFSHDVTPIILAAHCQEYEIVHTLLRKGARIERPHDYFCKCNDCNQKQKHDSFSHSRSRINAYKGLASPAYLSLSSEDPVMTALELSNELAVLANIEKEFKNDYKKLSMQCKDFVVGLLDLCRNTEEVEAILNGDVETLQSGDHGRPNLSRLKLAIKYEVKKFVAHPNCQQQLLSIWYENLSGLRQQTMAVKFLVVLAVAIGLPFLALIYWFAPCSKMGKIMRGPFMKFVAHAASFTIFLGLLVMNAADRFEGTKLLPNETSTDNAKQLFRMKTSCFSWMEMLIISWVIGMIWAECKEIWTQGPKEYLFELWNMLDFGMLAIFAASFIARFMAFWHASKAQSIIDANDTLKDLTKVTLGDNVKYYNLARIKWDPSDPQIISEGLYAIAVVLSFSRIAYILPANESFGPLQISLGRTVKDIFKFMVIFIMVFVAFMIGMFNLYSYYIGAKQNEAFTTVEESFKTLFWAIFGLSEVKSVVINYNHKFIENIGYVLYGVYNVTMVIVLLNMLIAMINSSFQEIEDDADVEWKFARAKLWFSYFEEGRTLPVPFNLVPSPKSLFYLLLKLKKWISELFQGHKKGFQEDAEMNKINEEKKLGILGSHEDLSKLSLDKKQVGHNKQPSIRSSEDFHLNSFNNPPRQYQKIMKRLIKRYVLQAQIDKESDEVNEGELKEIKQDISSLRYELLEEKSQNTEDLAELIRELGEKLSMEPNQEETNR
The experiment in a line: High throughput screening assay: Fluo4/AM calcium fluorescence in HEK293/TREx cells expressing human TRPC6, agonist GSK1702934A (single concentration 10 μM and IC50 curves). In kind it is cell-based. The conditions noted are these: antagonist effect against human TRPC6, 7 concentrations 20 μM to 0.027 μM, triplicate. The method, boiled down: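 HEK293/TREx cells stably carrying tetracycline-induced (1 μg/ml) human TRPC6, loaded with Fluo4/AM (0.5 μM, 60 min, RT), pretreated 2 min with compound (10 μM final in screen), then stimulated with GSK1702934A in high-Ca2+ Ringer's (20 mM Ca2+ final). Fluorescence ratio over ~3 min normalized to no-compound and control-blocker wells; IC50 from triplicate curves.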
In the case of `COc1cc(C(=O)N2CCC(c3nnc(N)cc3OC)CC2)ncc1-c1ccc(C(F)(F)F)nc1` [Compound 86, [4-(6-Amino-4-methoxy-pyridazin-3-yl)-piperidin-1-yl]-(4-methoxy-6′-trifluoromethyl-[3,3′]bipyridinyl-6-yl)-methanone], the IC50 came out at 660 nM.

On to `COc1cc(C(=O)N2CCC(c3ccc(N)nn3)CC2)ncc1-c1ccc2c(c1)OCC2` [Compound 16, [4-(6-Amino-pyridazin-3-yl)-piperidin-1-yl]-[5-(2,3-dihydro-benzofuran-6-yl)-4-methoxy-pyridin-2-yl]-methanone], for which the IC50 is 390 nM.

Consider `COc1cc(C(=O)N2CCN(c3cnc(N)cc3OC)C[C@@H]2[C@H](C)O)ncc1-c1ccc(C(F)(F)F)cc1` [Compound 107], for which the IC50 worked out at 210 nM.

In the case of `COc1cc(C(=O)N2CCN(c3cnc(N)cc3OC)CC2CC(F)F)ncc1-c1ccc(C(F)(F)F)cc1` (single isomer, unassigned) [Compound 109], the half-maximal inhibitory concentration (IC50) stood at 330 nM.

On to `COc1cc(C(=O)N2CCN(c3cnc(N)cc3OC)C[C@H]2CC(F)F)ncc1-c1ccc(C(F)(F)F)cc1` (single isomer, unassigned) [Compound 110], for which the IC50 came out at 400 nM.

As to `Cc1cc(-c2ccc(C(F)(F)F)cc2)ccc1C(=O)N1CCC(c2ccc(N)nn2)CC1` [Compound 69, [4-(6-Amino-pyridazin-3-yl)-piperidin-1-yl]-(3-methyl-4′-trifluoromethyl-biphenyl-4-yl)-methanone], the IC50 turned out to be 360 nM.

With `COc1cc(C(=O)N2CCC(c3ccc(N)nn3)CC2)ncc1-c1ccc(C(F)(F)F)c(F)c1` [Compound 26, [4-(6-Amino-pyridazin-3-yl)-piperidin-1-yl]-[5-(3-fluoro-4-trifluoromethyl-phenyl)-4-methoxy-pyridin-2-yl]-methanone], the IC50 was found to be 58 nM.

With `COc1cc(C(=O)N2CCC(c3ccc(N)nn3)CC2)ccc1-c1ccc(OCC2(C)CC2)nc1` [Compound 79, 6-[1-(3-Methoxy-4-{6-[(1-methylcyclopropyl)methoxy]pyridin-3-yl}benzoyl)piperidin-4-yl]pyridazin-3-amine], the IC50 worked out at 120 nM.

Take `COc1cc(-c2cnc(C(=O)N3CCC(c4ccc(N)nn4)CC3)cc2OC)ccc1OC(F)(F)F` [Compound 13]: the IC50 stood at 88 nM.

Consider `COc1cc(C(=O)N2CCC(c3ccc(N)nn3)CC2)ncc1-c1ccc(OCC2CC2(F)F)nc1` (centres unmarked) [Compound 111, [4-(6-Amino-pyridazin-3-yl)-piperidin-1-yl]-[6′-(2,2-difluoro-cyclopropylmethoxy)-4-methoxy-[3,3′]bipyridinyl-6-yl]-methanone], for which the IC50 was determined as 440 nM.

For `COC[C@H]1CN(c2cnc(N)cc2OC)CCN1C(=O)c1cc(OC)c(-c2ccccc2)cn1` [Compound 100, [(R)-4-(6-Amino-4-methoxy-pyridin-3-yl)-2-methoxymethyl-piperazin-1-yl]-(4-methoxy-5-phenyl-pyridin-2-yl)-methanone], the IC50 came to 230 nM.

Regarding `Nc1ccc(C2CCN(C(=O)c3ccc(-c4ccc(Cl)cc4)cc3)CC2)nn1` [Compound 4, [4-(6-Amino-pyridazin-3-yl)-piperidin-1-yl]-(4′-chloro-biphenyl-4-yl)-methanone], the IC50 stood at 1900 nM.

Turning to `COc1cc(C(=O)N2C[C@@H]3C[C@H]2CN3c2ccc(N)nn2)ccc1-c1ccc(C(F)(F)F)cc1` [Compound 115, [(1S,4S)-5-(6-Amino-pyridazin-3-yl)-2,5-diaza-bicyclo[2.2.1]hept-2-yl]-(2-methoxy-4′-trifluoromethyl-biphenyl-4-yl)-methanone], the IC50 was 250 nM.

In the case of `COc1cc(C(=O)N2CCC(c3ccc(N)nn3)CC2)ncc1-c1ccc(F)c(F)c1` [Compound 33, [4-(6-Amino-pyridazin-3-yl)-piperidin-1-yl]-[5-(3,4-difluoro-phenyl)-4-methoxy-pyridin-2-yl]-methanone], the IC50 worked out at 62 nM.

As for `COc1cc(C(=O)N2CCC(c3ccc(N)nn3)CC2)ncc1-c1ccc(OC(C)C)c(Cl)c1` [Compound 19], the IC50 came out at 610 nM.

As for `COc1cc(C(=O)N2CCC(c3ccc(N)nn3)CC2)ccc1-c1ccc(O[C@@H](C)C2CC2)nc1` [Compound 78, [4-(6-Amino-pyridazin-3-yl)-piperidin-1-yl]-{4-[6-((S)-1-cyclopropyl-ethoxy)-pyridin-3-yl]-3-methoxy-phenyl}-methanone], the IC50 came to 460 nM.

For `COc1cc(C(=O)N2CCN(c3cnc(N)cc3OC)C[C@@H]2CO)ncc1-c1ccccc1` [Compound 96, [(R)-4-(6-Amino-4-methoxy-pyridin-3-yl)-2-hydroxymethyl-piperazin-1-yl]-(4-methoxy-5-phenyl-pyridin-2-yl)-methanone], the IC50 was determined as 320 nM.

In the case of `COc1cc(C(=O)N2CCN(c3cnc(N)cc3C)C[C@@H]2CO)ncc1-c1ccc(F)cc1` [Compound 93, [(R)-4-(6-Amino-4-methyl-pyridin-3-yl)-2-hydroxymethyl-piperazin-1-yl]-[5-(4-fluoro-phenyl)-4-methoxy-pyridin-2-yl]-methanone], the IC50 came out at 27 nM.

On to `Nc1ccc(C2CCN(C(=O)c3ccc(-c4ccccc4)cc3)CC2)nn1` [Compound 1, [4-(6-Amino-pyridazin-3-yl)-piperidin-1-yl]-biphenyl-4-yl-methanone], for which the IC50 is 3800 nM.

As to `Cc1cc(C(=O)N2CCC(c3ccc(N)nn3)CC2)ccc1-c1ccc(C(F)(F)F)cc1` [Compound 63, [4-(6-Amino-pyridazin-3-yl)-piperidin-1-yl]-(2-methyl-4′-trifluoromethyl-biphenyl-4-yl)-methanone], the IC50 turned out to be 4700 nM.

Consider `COc1cc(C(=O)N2CCC(c3ccc(N)nn3)CC2)ncc1-c1ccc(OCC2CC2)nc1` [Compound 50, [4-(6-Amino-pyridazin-3-yl)-piperidin-1-yl]-(6′-cyclopropylmethoxy-4-methoxy-[3,3′]bipyridinyl-6-yl)-methanone], for which the IC50 came out at 190 nM.

Consider `COc1cc(C(=O)N2CCC(c3ccc(N)nn3)CC2)ccc1-c1ccc(OCC2CC2(F)F)nc1` (centres unmarked) [Compound 76, [4-(6-Amino-pyridazin-3-yl)-piperidin-1-yl]{4-[6-(2,2-difluoro-cyclopropylmethoxy)-pyridin-3-yl]-3-methoxy-phenyl}-methanone], for which the IC50 worked out at 380 nM.

For the molecule `COc1cc(C(=O)N2CCC(c3ccc(N)nn3)CC2)ccc1-c1ccc(OC(C)C)cc1` [Compound 57, [4-(6-Amino-pyridazin-3-yl)-piperidin-1-yl]-(4′-isopropoxy-2-methoxy-biphenyl-4-yl)-methanone], the IC50 stood at 320 nM.

On to `COc1cc(C(=O)N2CCC(c3ccc(N)nn3)CC2)ncc1-c1ccc(OC(C)C)c(F)c1` [Compound 20, [4-(6-Amino-pyridazin-3-yl)-piperidin-1-yl]-[5-(3-fluoro-4-isopropoxy-phenyl)-4-methoxy-pyridin-2-yl]-methanone], for which the IC50 was 450 nM.

Regarding `COc1cc(C(=O)N2CCC(c3ccc(N)nn3)CC2)ncc1-c1cccc(F)c1` [Compound 35, 6-{1-[5-(3-Fluorophenyl)-4-methoxypyridine-2-carbonyl]piperidin-4-yl}pyridazin-3-amine], the IC50 is 220 nM.

Take `COc1cc(C(=O)N2CCC(c3ccc(N)nn3)CC2)ncc1-c1ccc(OCC(F)(F)F)nc1` [Compound 47, [4-(6-Amino-pyridazin-3-yl)-piperidin-1-yl]-[4-methoxy-6′-(2,2,2-trifluoro-ethoxy)-[3,3′]bipyridinyl-6-yl]-methanone]: the IC50 turned out to be 200 nM.

The record behind these values is patent US11485740B2, “Inhibitors of TRPC6” (Boehringer Ingelheim International GmbH, priority 2018, dated 2022).
